Experimental data reported in patent publication US5985836A, “Alpha-1 proteinase inhibitor binding peptides” (Bayer Corporation, priority 1998, dated 1999).
Ends that are not written are not given here.

What was measured:
A1PI = biological target: T1, A1PI (Homo sapiens, UniProt P01009); assay: Capture and elution of active A1PI with 2M urea buffer (elastase inhibition activity assay and immunonephelometry); assay type: binding; settings: 4° C.
T1 construct: Human plasma is currently the only approved source of therapeutic AlPI
T1 sequence (P01009 25-418): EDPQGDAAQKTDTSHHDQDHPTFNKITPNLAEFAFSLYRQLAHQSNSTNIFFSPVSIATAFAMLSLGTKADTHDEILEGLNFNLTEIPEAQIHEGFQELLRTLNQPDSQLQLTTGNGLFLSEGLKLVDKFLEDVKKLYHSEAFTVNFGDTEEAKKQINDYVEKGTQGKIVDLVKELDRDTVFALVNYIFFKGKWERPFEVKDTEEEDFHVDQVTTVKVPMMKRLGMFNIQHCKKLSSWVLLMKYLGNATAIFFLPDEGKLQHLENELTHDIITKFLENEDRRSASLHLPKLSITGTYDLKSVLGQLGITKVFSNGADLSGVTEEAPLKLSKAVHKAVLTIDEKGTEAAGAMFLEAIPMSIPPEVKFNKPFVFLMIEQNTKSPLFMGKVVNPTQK

Immunoglobulin A (IgA) = assay: Purification from Effluent II+III, IgA mass balance; assay type: binding, human; settings: 1 ml Eff. II+III, 4° C.
In short: (§1)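 Mass balance per protein was determined over the load and each step eluate (1M NaCl, 3M NaCl, 2% acetic acid) of peptide columns challenged with 1 ml Effluent II+III. The feed contained 20% ethanol and 20-25 mg/ml hSA, the flow was 865 μl/min after a 10 min residence, and the temperature was 4° C.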

Immunoglobulin G (IgG) = assay: Purification from Effluent II+III, IgG mass balance; assay type: binding, human; settings: 1 ml Eff. II+III, 4° C.
In short: as §1

[1] = biological target: T2, apolipoprotein alpha-1 (Apo A-1) (Homo sapiens, UniProt P02647); assay: Purification from Effluent II+III, Apo A-1 mass balance; assay type: binding; settings: 1 ml Eff. II+III, 4° C.
T2 construct: Eff; II+III is a process intermediate in the Cohn plasma fractionation process; tissue Bayer Corporation (Clayton, N.C.); host or cells: plasma fraction: Cohn Effluent II+III
T2 sequence (P02647 19-267): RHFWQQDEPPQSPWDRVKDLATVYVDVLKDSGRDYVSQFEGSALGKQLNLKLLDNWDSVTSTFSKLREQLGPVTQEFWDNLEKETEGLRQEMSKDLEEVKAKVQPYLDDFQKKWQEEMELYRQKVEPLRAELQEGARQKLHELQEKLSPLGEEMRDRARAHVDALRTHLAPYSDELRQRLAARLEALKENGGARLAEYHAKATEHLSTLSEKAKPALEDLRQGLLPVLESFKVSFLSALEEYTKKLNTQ
In short: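 Peptide-ligand columns were loaded with 1 ml Cohn Effluent II+III (20% v/v ethanol, 20-25 mg/ml hSA, ~1 mg/ml A1PI, other plasma proteins at 0.1-1 mg/ml) using a 10 min residence time at 4° C. Step elutions at 865 μl/min used 1M NaCl, 3M NaCl, then 2% acetic acid, and protein mass balances were tracked across fractions.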

[2] = * as in Tables 4, 5 (below detection limit)

For VIFLVR, the “Mass A1PI in Urea Eluate (mg), Activity” value (A1PI; 1 mg A1PI, eluted with 2M urea, pH 6, elastase inhibition activity assay) was 0.36 mg, the “Mass A1PI in Urea Eluate (mg), Nephelometry” value (A1PI; 1 mg A1PI, eluted with 2M urea, pH 6, immunonephelometry) was 0.45 mg and the “Specific Activity” value (A1PI; mass of A1PI by activity assay relative to immunonephelometry, urea eluate) was 0.81 mg/mg.

VIWLVR was tested, and the “Percent Eluted by Fraction, 1M NaCl” value (Immunoglobulin A (IgA)) was 24%, the “Percent Eluted by Fraction, 2% Acetic Acid” value (Immunoglobulin A (IgA)) was 39% and the “Percent Eluted by Fraction, 3M NaCl” value (Immunoglobulin A (IgA)) was 0%. For the same substance, the “Percent Eluted by Fraction, Flow” value (Immunoglobulin A (IgA)) was 37%, the “Mass Protein per Eluate Fraction, 1M NaCl” value (Immunoglobulin A (IgA); [2]) was 0.11 mg and the “Mass Protein per Eluate Fraction, 2% Acetic Acid” value (Immunoglobulin A (IgA); [2]) was 0.18 mg. For the same substance, the “Mass Protein per Eluate Fraction, Flow” value (Immunoglobulin A (IgA); [2]) was 0.17 mg, the “Percent Eluted by Fraction, 1M NaCl” value (Immunoglobulin G (IgG)) was 6% and the “Percent Eluted by Fraction, 2% Acetic Acid” value (Immunoglobulin G (IgG)) was 0%. The “Percent Eluted by Fraction, 3M NaCl” value (Immunoglobulin G (IgG)) was 0%, the “Percent Eluted by Fraction, Flow” value (Immunoglobulin G (IgG)) was 94% and the “Mass Protein per Eluate Fraction, 1M NaCl” value (Immunoglobulin G (IgG); [2]) was 0.02 mg. The “Mass Protein per Eluate Fraction, Flow” value (Immunoglobulin G (IgG); [2]) was 0.36 mg, the “Percent Eluted by Fraction, 1M NaCl” value [1] was 0% and the “Percent Eluted by Fraction, 2% Acetic Acid” value [1] was 48%. For the same substance, the “Percent Eluted by Fraction, 3M NaCl” value [1] was 0%, the “Percent Eluted by Fraction, Flow” value [1] was 52% and the “Mass Protein per Eluate Fraction, 2% Acetic Acid” value [1, 2] was 0.29 mg. For the same substance, the “Mass Protein per Eluate Fraction, Flow” value [1, 2] was 0.32 mg.
